# Measured values published in patent publication US20240041828A1, “Combination Therapeutics Comprising Nrf2 Agonists and Antivirals for Treating Viral Infections” (The Regents of the University of California, priority 2022, published 2024).
# Entries after “also recorded” stand apart in the source; their conditions may differ. Where a name gives a salt, the structure may show the parent alone. Read-outs that look alike come from different tables or passages of the source.
# Columns and labels:
# Format in all cases: cell-based
# [1] = tested on: B.1.617.2 (Delta) SARS-CoV-2 variant
# [2] = tested on: B.1.617.2 (Delta) SARS-CoV-2 variant; assay: microbe, parasite or virus in culture; conditions: for IC50: Severe acute respiratory syndrome coronavirus 2, A549
# [3] = tested on: SARS-coV-2 Omicron variant
SMILES,"drug interaction (words, figure legend) [1]",IC50 compared to comparator drug [2],"anti-SARS-CoV-2 activity (words, figure legend) [2]",IC50 [2] [µM],IC50 compared to comparator drug [3],"anti-SARS-CoV-2 activity (words, figure legend) [3]","drug interaction (words, figure legend) ([1]; methanesulfonate)",IC50 compared to comparator drug ([2]; methanesulfonate),"anti-SARS-CoV-2 activity (words, figure legend) ([2]; methanesulfonate)",better antiviral effect in ALI HAE system compared to Paxlovid ([3]; ALI HAE system),"anti-SARS-CoV-2 activity (words, figure legend) ([3]; methanesulfonate)"
"COC(=O)/C=C/C(=O)OC [DMF, Dimethyl fumarate]",additive anti-SARS-CoV-2 activity with Paxlovid™; also recorded: additive anti-SARS-CoV-2 activity with molnupiravir,higher IC50 compared to Paxlovid™; also recorded: higher IC50 compared to molnupiravir,anti-SARS-CoV-2 activity in single layer human airway cells that is lower than Paxlovid™; also recorded: strong anti-SARS-CoV-2 activity in single layer human airway cells that is higher than molnupiravir,16.7,IC50 that was similar to Paxlovid™; also recorded: higher than molnupiravir IC50,stronger anti-SARS-CoV-2 activity in multilayer human airway cell culture than molnupiravir,,,,,
"COC1=C(OC)C(=O)C(CCCCCCCCCC[P+](c2ccccc2)(c2ccccc2)c2ccccc2)=C(C)C1=O.CS(=O)(=O)[O-] [Mito-MES, 10-(4,5-dimethoxy-2-methyl-3,6-dioxo-1,4-cyclohexadienyl) decyl triphenylphosphonium methanesulfonate]",,,,0.144,higher than Paxlovid™ IC50,,additive anti-SARS-CoV-2 activity with Paxlovid™; also recorded: additive anti-SARS-CoV-2 activity with molnupiravir,higher IC50 compared to molnupiravir,strong anti-SARS-CoV-2 activity in single layer human airway cells that is similar to Paxlovid™; also recorded: strong anti-SARS-CoV-2 activity in single layer human airway cells that is higher than molnupiravir,about 1000 fold,stronger anti-SARS-CoV-2 activity in multilayer human airway cell culture than Paxlovid™; also recorded: stronger anti-SARS-CoV-2 activity in multilayer human airway cell culture than molnupiravir
"CC(C)C(=O)OC[C@H]1O[C@@H](n2ccc(NO)nc2=O)[C@H](O)[C@@H]1O [molnupiravir, Molnupiravir]",,,,31,,,,,,,
